Assay results: patent publication US5686424A, “2-oxoethyl derivatives as immunosuppressants” (Miles Inc., priority 1995, dated 1997)
Read-outs that look alike come from different tables or passages of the source.

Key:
[1] = molecular target: FKBP (Homo sapiens, UniProt P62942); test: PPIase Inhibition Assay; assay type: biochemical
Procedure: 1) Inhibition of PPIase Activity
This assay follows in principle the procedure described in Kofron et al., 1991, Biochemistry 30:6127.
The three main reagents used are PPIase, a substrate for PPIase, and a selected inhibitor compound of the present invention. The basic principle behind this assay is the conversion of the cis isomer of the substrate to the trans form, which conversion is catalyzed by PPIase. Essentially, inhibition of this PPIase activity is measured for the selected compounds. A peptide chymotrypsin substrate containing a proline in the P2 position is only cleaved by chymotrypsin when the Phe-Pro bond is in the trans isomeric configuration. In the presence of excess chymotrypsin, all of the trans peptide isomers are cleaved within approximately five seconds, leaving only cis forms.
The cis peptide will spontaneously convert to the trans isomer at a slow rate. The cis to trans conversion is catalyzed by isomerases at a much faster rate than this spontaneous conversion. Proteins with PPIase activity are examples of such isomerases. After isomerization, the peptide is cleaved by chymotrypsin releasing p-nitroaniline which can be monitored at 390 nm. The rate of release is then calculated using a first order rate plus offset equation utilizing the ENZFITTER program (Leatherbarrow, BIOSOFT, Cambridge, United Kingdom).
In a plastic cuvette are added 950 ul of ice cold assay buffer (25 mM HEPES, pH 7.8, 100 mM NaCl), 10 uL of FKBP (2.5 uM in 10 mM Tris-Cl pH 7.5, 100 mM NaCl, 1 mM dithiothreitol), 25 ul of chymotrypsin (50 mg/ml in 1 mM HCl) and 10 ul of the test compound at various concentrations in dimethyl sulphoxide. The reaction is initiated by addition of 5 ul of substrate (Succinyl-Ala-Phe-Pro-Phe-para-nitroanilide, 5 mg/ml in 235 mM LiCl in trifluoroethanol).
The absorbance at 390 nm versus time is monitored for 90 sec using a Beckman DU70 spectrophotometer. The absorbance versus time data files are transferred to an IBM XT computer and the rate constants determined using the commercial enzfitter program. For each set of data, the uncatalyzed rate of conversion is measured and the uninhibited enzymatic rate determined. The data are expressed as % Activity remaining and are calculated as follows:
% Activity Remaining=(kobs -kuncat)/(kuninh
where kobs is the rate in the presence of a selected test compound, kuncat is the rate in the absence of enzyme, and kuninh is the rate in the presence of enzyme
Data was plotted as the velocity in the absence of the inhibitor (V-) divided by the velocity in the presence of inhibitor (V+) versus the inhibitor concentration. The IC50 can be determined following linear regression as the inhibitor concentration where

[2] = test system: human T-cells; test: Suppression of Human T-Cell Proliferation Assay (PHA-stimulated, [3H]-thymidine incorporation); assay type: cell-based; conditions: read-out: IC50
Excerpt: 2) Human T Lymphocyte Inhibition
Inhibition of mitogen-induced T-cell proliferation can be used to profile immunosuppressive activity of test compounds. In the description of the assay which follows, mitogen-induced T-cell activation was used to test the inhibitory potencies of select compounds of the present invention.
In an assay similar to that described by Bradley in Mishell et al. (Eds.), 1980, Selected Methods in Cellular Immunology, pp 156-161, W. H. Freeman & Co., San Fransisco, Calif., T-cells were stimulated by incubation with phytohemagglutinin (PHA) which binds to cell surface molecules, including the T-cell receptor. This stimulation results in proliferation which can be measured by incorporation of [^3 H]-thymidine into cellular DNA.
The immunosuppressive properties of the compounds of the present invention can be determined by adding various concentrations of the compounds to these cultures and measuring the effect on T-cell proliferation.
Suppression of Human T-Cell Proliferation Assay
Fresh LeukoPaks were obtained from the New York Blood Center, New York, N.Y. The cells, including erythrocytes and leukocytes, were diluted with Hank's Balanced Salt Solution (HBSS) (GIBCO, Grand Island, N.Y.) and layered over Lymphoprep (Nycomed Pharma AS, Oslo, Norway) in sterile 50 ml conical centrifuge tubes. Lymphocytes were isolated at the Hank's/Nycomed interface after centrifugation at 2000×g, 4° C. for 15 min. The lymphocytes were washed with Minimal Essential Medium (GIBCO) containing 2% fetal bovine serum (FBS) (Sigma Chemical Co., St. Louis, Mo.), 1% HEPES buffer (GIBCO) and 1% Penicillin-Stretomycin solution (GIBCO).
T-cells were further purified essentially by sheep erythrocyte (SRBC) rosetting as described by Morimoto et al., 1983, J. Immunol. 130:157. The isolated lymphocytes were adjusted to 2×10^7 cells/ml and 5 ml aliquots of the cell suspension were incubated for 10 minutes at room temperature with 5 ml of a 5% SRBC (Cappel, Organon Technika Corp., West Chester, Pa.) suspension. The cells were gently pelleted by centrifugation at 300 rpm for 10 minutes, followed by a 1 hour incubation at room temperature to allow rosette formation. The cells were gently resuspended,layered over Lymphoprep and centrifuged for 30 minutes at 500×g. The pellet, containing rosetted T-cells and SRBC was treated with ice cold buffered ammonium chloride (GIBCO) to lyse the erythrocytes. T-cells were washed twice with HBSS.
Purified T-cells were resuspended at 2×10^6 cells/ml in complete culture medium composed of RPMI-1640 (Whittaker Bioproducts, Walkerville, Md.) with 10% FBS (Sigma), 2 mM L-glutamine (GIBCO), 1% Penicillin-Streptomycin (GIBCO) and 15 mM HEPES (GIBCO). In 96-well plates (Becton Dickinson, Lincoln Park, N.J.), 0.1 ml aliquots of T-cell suspension were mixed with 0.05 ml of 40 μg/ml PHA-M (Sigma). The compounds of this invention were dissolved in dimethylsulfoxide at 10 mM and various dilutions in complete medium were added in duplicate wells (0.05 ml/well). The plates were incubated at 37° C. in a humidified atmosphere of 5% carbon dioxide and 95% air for 72 hours.
Proliferation was assessed by measurement of [^3 H]-thymidine incorporation. During the last 6 hours of incubation, the cells were pulse labelled with 1 μCi/well of [^3 H]-thymidine (New England Nuclear, Boston, Mass.). The cells were harvested onto glass fiber paper using a plate harvester and the radioactivity incorporated into cellular DNA corresponding to individual wells was measured by standard liquid scintillation counting methods.

[3] = concentration of inhibitor required for 50% inhibition of enzyme activity, FKBP, substrate Succinyl-Ala-Phe-Pro-Phe-para-nitroanilide, TABLE I
[4] = concentration inhibiting [3H]-thymidine incorporation of PHA-stimulated T-cells by 50%, 72 hours, TABLE 2

Chain of FKBP (P62942 whole entry): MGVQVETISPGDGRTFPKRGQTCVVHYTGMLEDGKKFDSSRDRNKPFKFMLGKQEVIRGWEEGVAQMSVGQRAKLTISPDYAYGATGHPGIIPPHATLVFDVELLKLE

| Structure (SMILES) | IC50 [1, 3] | IC50 [2, 4] | IC50 [1] | IC50 [2] |
| --- | --- | --- | --- | --- |
| CC[C@H](C)[C@H](NC(=O)[C@@H]1CCCN1CC(=O)OC)C(=O)NCc1ccccc1 [Example 6, L-Isoleucine, N-[1-(2-Methoxy-2-Oxoethyl)-L-Prolyl] Benzylamide] |  |  | < 50 µM |  |
| CC[C@H](C)[C@H](NC(=O)[C@@H]1CCCN1CC(=O)c1ccc2ccccc2c1)C(=O)NCc1ccccc1 [Example 8, L-Isoleucine, N-[1-(2-Naphth-2-yl-2-Oxoethyl)-L-Prolyl] Benzylamide] | 3.4 µM | 50 µM |  |  |
| CC[C@H](C)[C@H](NC(=O)[C@@H]1CCCN1CC(=O)c1ccc(-c2ccccc2)cc1)C(=O)NCc1ccccc1 [Example 9, L-Isoleucine, N-[1-(2-(Biphenyl-4-yl)-2-Oxoethyl)-L-Prolyl] Benzylamide] |  |  | < 50 µM | 50 µM |
| CC[C@H](C)[C@H](NC(=O)[C@@H]1CCCN1CC(=O)c1sc2ccc(Cl)cc2c1C)C(=O)NCc1ccccc1 [Example 11, L-Isoleucine, N-[1-(2-(5-Chloro-3-Methyl-benzo[B]thiophene-2-yl)-2-Oxoethyl)-L-Prolyl] Benzylamide] | 50 µM | 34 µM |  |  |
| CC[C@H](C)[C@@H](C(=O)NCc1ccccc1)N(C)C(=O)[C@@H]1CCCN1CC(=O)c1ccccc1 [Example 16, L-Isoleucine, N-Methyl-N-[1-(2-Phenyl-2-Oxoethyl)-L-Prolyl] Benzylamide] | > 50 µM | > 50 µM |  |  |
| CC[C@H](C)[C@H](NC(=O)[C@@H]1CCCN1CC(=O)c1ccc(OC)cc1OC)C(=O)NCc1ccccc1 [Example 28, L-Isoleucine, N-[1-(2-(2,4-Dimethoxyphenyl)-2-Oxoethyl)-L-Prolyl] Benzylamide] | < 50 µM |  |  |  |
| CC[C@H](C)[C@H](NC(=O)[C@@H]1CCCN1CC(=O)c1ccccc1[N+](=O)[O-])C(=O)NCc1ccccc1 [Example 29, L-Isoleucine, N-[1-(2-(2-Nitrophenyl)-2-Oxoethyl)-L-Prolyl] Benzylamide] | < 50 µM |  |  |  |
| CC[C@H](C)[C@H](NC(=O)[C@@H]1CCCN1CC(=O)c1ccc([N+](=O)[O-])cc1)C(=O)NCc1ccccc1 [Example 30, L-Isoleucine, N-[1-(2-(4-Nitrophenyl)-2-Oxoethyl)-L-Prolyl] Benzylamide] | < 50 µM |  |  |  |
| CC[C@H](C)[C@H](NC(=O)[C@@H]1CCCN1CC(=O)c1ccc(-c2ccccc2)cc1)C(=O)N1CCc2ccccc2C1 [Example 50, L-Isoleucine, N-[1-(2-(Biphenyl-4-yl)-2-Oxoethyl)-L-Prolyl] 1,2,3,4-Tetrahydroisoquinolinamide] |  |  | 50 µM |  |
| CC[C@H](C)[C@H](NC(=O)[C@@H]1CCCN1CC(=O)c1ccc(-c2ccccc2)cc1)C(=O)OCc1ccccc1 [Example 51, L-Isoleucine, N-[1-(2-(Biphenyl-4-yl)-2-Oxoethyl)-L-Prolyl] Benzyl Ester] |  |  | > 50 µM |  |
| CSCC[C@H](NC(=O)[C@@H]1CCCN1CC(=O)c1ccc(-c2ccccc2)cc1)C(=O)NCc1ccccc1 [Example 54, L-Methionine, N-[1-(2-(Biphenyl-4-yl)-2-Oxoethyl)-L-Prolyl] Benzylamide] |  |  | > 50 µM |  |
| CCOC(=O)C1CCCN(C(=O)CN2CCC[C@H]2C(=O)N[C@H](C(=O)NCc2ccccc2)[C@@H](C)CC)C1 (stereo partly drawn) [Example 72, L-Isoleucine, N-[1-[2-[N-(Piperidine-3-Carboxylic Acid Ethyl Ester)]-2-Oxoethyl]-L-Prolyl] Benzylamide] | < 5 µM |  |  |  |

More lines, main results first:

| IC50 [1, 3] | Structure (SMILES) | IC50 [2, 4] | IC50 [1] | IC50 [2] |
| --- | --- | --- | --- | --- |
| 5.8 µM | C/C=C/C=C/COC(=O)CN1CCC[C@H]1C(=O)N[C@H](C(=O)NCc1ccccc1)[C@@H](C)CC (relative stereo) [Example 12, L-Isoleucine, N-[1-(2-(trans,trans-Hexa-2,4-dienyl-1-oxy)-2-Oxoethyl)-L-Prolyl] Benzylamide] | 35 µM |  |  |
| 2.2 µM | CC[C@H](C)[C@H](NC(=O)[C@@H]1CCCN1CC(=O)OCc1ccccc1)C(=O)NCc1ccccc1 [Example 5, L-Isoleucine, N-[1-(2-Benzyloxy-2-Oxoethyl)-L-Prolyl] Benzylamide] |  |  |  |
| 2.7 µM | CC[C@H](C)[C@H](NC(=O)[C@@H]1CCCN1CC(=O)c1ccccc1)C(=O)NCc1ccccc1 [Example 7, L-Isoleucine, N-[1-(2-Phenyl-2-Oxoethyl)-L-Prolyl] Benzylamide] | < 50 µM |  |  |
| < 50 µM | CC[C@H](C)[C@H](NC(=O)[C@@H]1CCCN1CC(=O)c1ccc(Cl)cc1)C(=O)NCc1ccccc1 [Example 13, L-Isoleucine, N-[1-(2-(4-Chlorophenyl)-2-Oxoethyl)-L-Prolyl] Benzylamlde] | > 50 µM |  |  |
| < 50 µM | CC[C@H](C)[C@H](NC(=O)[C@@H]1CCCN1CC(=O)c1ccc(C)cc1)C(=O)NCc1ccccc1 [Example 14, L-Isoleucine, N-[1-(2-(4-Methylphenyl)-2-Oxoethyl)-L-Prolyl] Benzylamide] | > 50 µM |  |  |
| < 50 µM | CC[C@H](C)[C@H](NC(=O)[C@@H]1CCCN1CC(=O)c1ccc(OC)cc1)C(=O)NCc1ccccc1 [Example 15, L-Isoleucine, N-[1-(2-(4-Methoxylphenyl)-2-Oxoethyl)-L-Prolyl] Benzylamide] | 17 µM |  |  |
| > 5 µM | CC[C@H](C)[C@H](NC(=O)[C@@H]1CCCN1CC(=O)NC1CCCC1)C(=O)NCc1ccccc1 [Example 79, L-Isoleucine, N-[1-[2-(N-Cyclopentylamino)-2-Oxoethyl]-L-Prolyl] Benzylamide] |  |  |  |
| > 5 µM | CC[C@H](C)[C@H](NC(=O)[C@@H]1CCCN1CC(=O)NCc1ccccc1)C(=O)NCc1ccccc1 [Example 80, L-Isoleucine, N-[1-[2-(N-(Phenylmethylamino))-2-Oxoethyl]-L-Prolyl] Benzylamide] |  |  |  |
| > 5 µM | CC[C@H](C)[C@H](NC(=O)[C@@H]1CCCN1CC(=O)NCC1CCCCC1)C(=O)NCc1ccccc1 [Example 81, L-Isoleucine, N-[1-[2-(N-(Cyclohexylmethylamino))-2-Oxoethyl]-L-Prolyl] Benzylamide] |  |  |  |
